Data reported in ChEMBL document CHEMBL3885861, “Open TG-GATES”.

Species: Rattus norvegicus
Assay: Open TG-GATES - Regimen: Daily Repeat
Type: toxicity, organism-based, Sprague-Dawley
Design: regimen Daily Repeat, gender Male, age 6 weeks
Conditions: in vivo, po, 0 mg/kg, route gavage, dose level Control; for APTT / Bas / Eos / Fbg / Hb / Ht / Lym / MCH / MCHC / MCV / Mono / Neu / PT / Plat / RBC / Ret / WBC: tissue Blood; for KIDNEY_L / KIDNEY_R / KIDNEY_TOTAL: tissue Kidney; for LIVER: tissue Liver; for A/G / ALP / ALT / AST / BUN / CRE / Ca / Cl / DBIL / GLC / IP / K / LDH / Na / PL / RALB / TBIL / TC / TG / TP / gamma-GTP: tissue Plasma

With `ClC(Cl)(Cl)Cl` [CARBON TETRACHLORIDE] the TERMINAL_BW (72 h, time 3 day) was 223.2 g, the APTT (72 h, time 3 day) was 17 s and the Bas (72 h, time 3 day) was 0%. For the same molecule, the Eos (72 h, time 3 day) was 1%, the Fbg (72 h, time 3 day) was 234.4 mg/dL and the Hb (72 h, time 3 day) was 13.7 g/dL. For the same molecule, the Ht (72 h, time 3 day) was 40.1%, the Lym (72 h, time 3 day) was 82.4% and the MCH (72 h, time 3 day) was 21.8 pg. The MCHC (72 h, time 3 day) was 34.2%, the MCV (72 h, time 3 day) was 63.7 fL and the Mono (72 h, time 3 day) was 2.8%. It also gave a Neu (72 h, time 3 day) of 13%, a PT (72 h, time 3 day) of 11.6 s and a Plat (72 h, time 3 day) of 129.5 x10_4/uL. It also gave an RBC (72 h, time 3 day) of 629.2 x10_4/ul, a Ret (72 h, time 3 day) of 7.4% and a WBC (72 h, time 3 day) of 96.4 x10_2/uL. The KIDNEY_L (72 h, time 3 day) was 0.9 g, the KIDNEY_R (72 h, time 3 day) was 1 g and the KIDNEY_TOTAL (72 h, time 3 day) was 1.9 g. It also gave an LIVER (72 h, time 3 day) of 10.9 g, an A/G (72 h, time 3 day) of 1.5 and an ALP (72 h, time 3 day) of 1075.2 IU/L. The ALT (72 h, time 3 day) was 44.8 IU/L, the AST (72 h, time 3 day) was 71.2 IU/L and the BUN (72 h, time 3 day) was 16.2 mg/dL. It also gave a CRE (72 h, time 3 day) of 0.4 mg/dL, a Ca (72 h, time 3 day) of 10.9 mg/dL and a Cl (72 h, time 3 day) of 103 meq/L. It also gave a DBIL (72 h, time 3 day) of 0.08 mg/dL, a GLC (72 h, time 3 day) of 206.4 mg/dL and an IP (72 h, time 3 day) of 7.5 mg/dL. The K (72 h, time 3 day) was 3.9 meq/L, the LDH (72 h, time 3 day) was 208.6 IU/L and the Na (72 h, time 3 day) was 140 meq/L. For the same molecule, the PL (72 h, time 3 day) was 155.4 mg/dL, the RALB (72 h, time 3 day) was 3.2 g/dL and the TBIL (72 h, time 3 day) was 0.1 mg/dL. It also gave a TC (72 h, time 3 day) of 82.4 mg/dL, a TG (72 h, time 3 day) of 86.6 mg/dL and a TP (72 h, time 3 day) of 5.5 g/dL. The gamma-GTP (72 h, time 3 day) was 1 IU/L, the TERMINAL_BW ([…], time 7 day) was 257 g and the TERMINAL_BW ([…], time 14 day) was 300.9 g. For the same molecule, the TERMINAL_BW ([…], time 28 day) was 389 g, the APTT ([…], time 7 day) was 18.3 s and the Bas ([…], time 7 day) was 0%. For the same molecule, the Eos ([…], time 7 day) was 1%, the Fbg ([…], time 7 day) was 249.4 mg/dL and the Hb ([…], time 7 day) was 13.9 g/dL. For the same molecule, the Ht ([…], time 7 day) was 40.1%, the Lym ([…], time 7 day) was 84.6% and the MCH ([…], time 7 day) was 21.6 pg. For the same molecule, the MCHC ([…], time 7 day) was 34.8%, the MCV ([…], time 7 day) was 61.9 fL and the Mono ([…], time 7 day) was 2.6%. For the same molecule, the Neu ([…], time 7 day) was 11.2%, the PT ([…], time 7 day) was 11.5 s and the Plat ([…], time 7 day) was 129.8 x10_4/uL. The RBC ([…], time 7 day) was 647.4 x10_4/ul, the Ret ([…], time 7 day) was 6.1% and the WBC ([…], time 7 day) was 111 x10_2/uL. The APTT ([…], time 14 day) was 20.1 s, the Bas ([…], time 14 day) was 0% and the Eos ([…], time 14 day) was 0.8%. The Fbg ([…], time 14 day) was 239 mg/dL, the Hb ([…], time 14 day) was 14.6 g/dL and the Ht ([…], time 14 day) was 42.9%. For the same molecule, the Lym ([…], time 14 day) was 80.8%, the MCH ([…], time 14 day) was 20 pg and the MCHC ([…], time 14 day) was 34%. It also gave an MCV ([…], time 14 day) of 58.9 fL, a Mono ([…], time 14 day) of 2.6% and a Neu ([…], time 14 day) of 15%. It also gave a PT ([…], time 14 day) of 11.5 s, a Plat ([…], time 14 day) of 124 x10_4/uL and an RBC ([…], time 14 day) of 728 x10_4/ul. It also gave a Ret ([…], time 14 day) of 3.9%, a WBC ([…], time 14 day) of 114.8 x10_2/uL and an APTT ([…], time 28 day) of 22.7 s. It also gave a Bas ([…], time 28 day) of 0%, an Eos ([…], time 28 day) of 1% and a Fbg ([…], time 28 day) of 227.4 mg/dL. It also gave a Hb ([…], time 28 day) of 15.1 g/dL, a Ht ([…], time 28 day) of 43.7% and a Lym ([…], time 28 day) of 83.8%. For the same molecule, the MCH ([…], time 28 day) was 19.3 pg, the MCHC ([…], time 28 day) was 34.6% and the MCV ([…], time 28 day) was 55.7 fL. It also gave a Mono ([…], time 28 day) of 2.6%, a Neu ([…], time 28 day) of 11.8% and a PT ([…], time 28 day) of 11.9 s. The Plat ([…], time 28 day) was 120.7 x10_4/uL, the RBC ([…], time 28 day) was 785.8 x10_4/ul and the Ret ([…], time 28 day) was 2.8%. For the same molecule, the WBC ([…], time 28 day) was 121 x10_2/uL, the KIDNEY_L ([…], time 7 day) was 1 g and the KIDNEY_R ([…], time 7 day) was 1 g. The KIDNEY_TOTAL ([…], time 7 day) was 2.1 g, the KIDNEY_L ([…], time 14 day) was 1.2 g and the KIDNEY_R ([…], time 14 day) was 1.1 g. The KIDNEY_TOTAL ([…], time 14 day) was 2.3 g, the KIDNEY_L ([…], time 28 day) was 1.3 g and the KIDNEY_R ([…], time 28 day) was 1.4 g. For the same molecule, the KIDNEY_TOTAL ([…], time 28 day) was 2.7 g, the LIVER ([…], time 7 day) was 12.5 g and the LIVER ([…], time 14 day) was 12.6 g. For the same molecule, the LIVER ([…], time 28 day) was 16.7 g, the A/G ([…], time 7 day) was 1.7 and the ALP ([…], time 7 day) was 922.4 IU/L. For the same molecule, the ALT ([…], time 7 day) was 34.2 IU/L, the AST ([…], time 7 day) was 62.4 IU/L and the BUN ([…], time 7 day) was 16.2 mg/dL. It also gave a CRE ([…], time 7 day) of 0.4 mg/dL, a Ca ([…], time 7 day) of 10.7 mg/dL and a Cl ([…], time 7 day) of 104 meq/L. The DBIL ([…], time 7 day) was 0.1 mg/dL, the GLC ([…], time 7 day) was 204.2 mg/dL and the IP ([…], time 7 day) was 7.4 mg/dL. For the same molecule, the K ([…], time 7 day) was 4.2 meq/L, the LDH ([…], time 7 day) was 201.8 IU/L and the Na ([…], time 7 day) was 139.8 meq/L. The PL ([…], time 7 day) was 165.4 mg/dL, the RALB ([…], time 7 day) was 3.5 g/dL and the TBIL ([…], time 7 day) was 0.2 mg/dL. The TC ([…], time 7 day) was 81.8 mg/dL, the TG ([…], time 7 day) was 126.4 mg/dL and the TP ([…], time 7 day) was 5.5 g/dL. It also gave a gamma-GTP ([…], time 7 day) of 1.2 IU/L, an A/G ([…], time 14 day) of 1.4 and an ALP ([…], time 14 day) of 813 IU/L. For the same molecule, the ALT ([…], time 14 day) was 29.8 IU/L, the AST ([…], time 14 day) was 60.2 IU/L and the BUN ([…], time 14 day) was 14 mg/dL. The CRE ([…], time 14 day) was 0.5 mg/dL, the Ca ([…], time 14 day) was 10.4 mg/dL and the Cl ([…], time 14 day) was 103.8 meq/L. The DBIL ([…], time 14 day) was 0.062 mg/dL, the GLC ([…], time 14 day) was 215.8 mg/dL and the IP ([…], time 14 day) was 7.3 mg/dL. The K ([…], time 14 day) was 3.7 meq/L, the LDH ([…], time 14 day) was 209.6 IU/L and the Na ([…], time 14 day) was 142.4 meq/L. It also gave a PL ([…], time 14 day) of 135.6 mg/dL, an RALB ([…], time 14 day) of 3.5 g/dL and a TBIL ([…], time 14 day) of 0.1 mg/dL. The TC ([…], time 14 day) was 69 mg/dL, the TG ([…], time 14 day) was 73.4 mg/dL and the TP ([…], time 14 day) was 5.9 g/dL. For the same molecule, the gamma-GTP ([…], time 14 day) was 1 IU/L, the A/G ([…], time 28 day) was 1.4 and the ALP ([…], time 28 day) was 495 IU/L. The ALT ([…], time 28 day) was 31.2 IU/L, the AST ([…], time 28 day) was 60.4 IU/L and the BUN ([…], time 28 day) was 16.4 mg/dL. It also gave a CRE ([…], time 28 day) of 0.5 mg/dL, a Ca ([…], time 28 day) of 10.5 mg/dL and a Cl ([…], time 28 day) of 102.2 meq/L. The DBIL ([…], time 28 day) was 0.07 mg/dL, the GLC ([…], time 28 day) was 238 mg/dL and the IP ([…], time 28 day) was 6.9 mg/dL. The K ([…], time 28 day) was 3.9 meq/L, the LDH ([…], time 28 day) was 211.6 IU/L and the Na ([…], time 28 day) was 140.4 meq/L. For the same molecule, the PL ([…], time 28 day) was 143.8 mg/dL, the RALB ([…], time 28 day) was 3.5 g/dL and the TBIL ([…], time 28 day) was 0.1 mg/dL. For the same molecule, the TC ([…], time 28 day) was 72.4 mg/dL, the TG ([…], time 28 day) was 83 mg/dL and the TP ([…], time 28 day) was 6 g/dL. The gamma-GTP ([…], time 28 day) was 0.8 IU/L.
